# Counter-ions that a name gives are not always drawn.
# Assays:
# [1] = test system: HT22 cells (mouse hippocampal neuron); experiment: Cell cytotoxicity test: protection of HT22 cells against glutamate toxicity (EC50) and cytotoxicity of the compounds (CC50), MTT; format: cell-based; settings: Mus musculus, HT-22, five millimolar glutamate, 24 hrs, read-out: EC50 (neuroprotective effect against glutamate toxicity)
# Procedure: (§1) HT22 cells (mouse hippocampal neuron, Salk Institute and KRIBB) were plated in a 96-well plate at a density of 3×10^3 cells/well for 16 hrs before treatment. The cells were treated with five millimolar glutamate and various concentrations of the inventive compounds and incubated for 24 hrs in a growth media (DMEM with 10% FBS and 1% penicillin streptomycin). Then, the cells were treated with 3-(4,5-dimethylthiazol-2-yl)-2,5-diphenyltetrazolium bromide (MTT, Sigma®) for 4 hrs and absorbance of each well was measured with a plate reader at a wavelength of 450 nm. [Da-Qing, et. al., Anti-oxidant and anti-inflammatory activities of macelignan in murine hippocampal cell line and primary culture of rat microglia cells, BBRC, 2005, 331, 1264-1269].
# (§2) In Table 1, EC50 is neuroprotective effect against glutamate toxicity and CC50 is cytotoxicity of the compounds. The EC50 values were statistically analyzed using Prizm® (GraphPad Software Inc., San Diego, Calif., USA).
# [2] = as above; format: cell-based, mouse; settings: mouse, HT22 cells (mouse hippocampal neuron)
# Procedure: as §1, §2
compound,measurement,setting,value
"CCCNc1cc2c(cc1O)[C@]13CCCC[C@@H]1[C@H](C2)NCC3 [Example 88, (+)-3-Hydroxy-2-propylaminomorphinan TFA salt]",EC50,[1],0.0416 µM
same,CC50 at 24 h,[2],37.2 µM
"CCCC(CCC)Nc1cc2c(cc1O)[C@]13CCCC[C@@H]1[C@H](C2)NCC3 [Example 89, (+)-2-(Heptan-4-ylamino)-3-hydroxymorphinan TFA salt]",EC50,[1],0.074 µM
same,CC50 at 24 h,[2],1.94 µM
"CCCCNc1cc2c(cc1O)[C@]13CCCC[C@@H]1[C@H](C2)NCC3 [Example 90, (+)-2-Butylamino-3-hydroxymorphinan TFA salt]",EC50,[1],0.0747 µM
same,CC50 at 24 h,[2],35 µM
"CC(Nc1cc2c(cc1O)[C@]13CCCC[C@@H]1[C@H](C2)NCC3)c1ccccc1 (stereo partly drawn) [Example 91, (+)-3-Hydroxy-2-(1-phenylethylamino)morphinan TFA salt]",EC50,[1],0.0813 µM
same,CC50 at 24 h,[2],15 µM
"Oc1cc2c(cc1NC1CCCC1)C[C@@H]1NCC[C@]23CCCC[C@H]13 [Example 92, (+)-2-Cyclopentylamino-3-hydroxymorphinan TFA salt]",EC50,[1],0.0927 µM
same,CC50 at 24 h,[2],378 µM
"Oc1cc2c(cc1NC1CCCCC1)C[C@@H]1NCC[C@]23CCCC[C@H]13 [Example 93, (+)-2-Cyclohexylamino-3-hydroxymorphinan TFA salt]",EC50,[1],0.0986 µM
same,CC50 at 24 h,[2],13.8 µM
"Oc1cc2c(cc1NC1CCCCCC1)C[C@@H]1NCC[C@]23CCCC[C@H]13 [Example 94, (+)-2-Cycloheptylamino-3-hydroxymorphinan TFA salt]",EC50,[1],0.102 µM
same,CC50 at 24 h,[2],7.55 µM
"CCC(C)Nc1cc2c(cc1O)[C@]13CCCC[C@@H]1[C@H](C2)NCC3 (stereo partly drawn) [Example 95, (+)-2-(sec-Butylamino)-3-hydroxymorphinan TFA salt]",EC50,[1],0.131 µM
same,CC50 at 24 h,[2],66.4 µM
"CCCN(CCC)c1cc2c(cc1O)[C@]13CCCC[C@@H]1[C@H](C2)NCC3 [Example 96, (+)-2-(Dipropylamino)-3-hydroxymorphinan TFA salt]",EC50,[1],0.178 µM
same,CC50 at 24 h,[2],3.49 µM
"Oc1cc2c(cc1NCCC(F)(F)F)C[C@@H]1NCC[C@]23CCCC[C@H]13 [Example 97, (+)-3-Hydroxy-2-(3-trifluoropropylamino)morphinan TFA salt]",EC50,[1],0.183 µM
same,CC50 at 24 h,[2],67 µM
"CN(C)c1cc2c(cc1O)[C@]13CCCC[C@@H]1[C@H](C2)NCC3 [Example 98, (+)-2-(Dimethylamino)-3-hydroxymorphinan TFA salt]",EC50,[1],5.69 µM
same,CC50 at 24 h,[2],> 100 µM
"CCOCCNc1cc2c(cc1O)[C@]13CCCC[C@@H]1[C@H](C2)NCC3 [Example 99, (+)-2-(2-Ethoxyethylamino)-3-hydroxymorphinan TFA salt]",EC50,[1],10.4 µM
same,CC50 at 24 h,[2],> 100 µM
"OCCNc1cc2c(cc1O)[C@]13CCCC[C@@H]1[C@H](C2)NCC3 [Example 100, (+)-3-Hydroxy-2-(2-hydroxyethylamino)morphinan TFA salt]",EC50,[1],11.7 µM
same,CC50 at 24 h,[2],> 100 µM
"CCN(CC)c1cc2c(cc1O)[C@]13CCCC[C@@H]1[C@H](C2)NCC3 [Example 101, (+)-2-(Diethylamino)-3-hydroxymorphinan TFA salt]",EC50,[1],14 µM
same,CC50 at 24 h,[2],> 100 µM
"CCCN(C)c1cc2c(cc1O)[C@]13CCCC[C@@H]1[C@H](C2)NCC3 [Example 102, (+)-3-Hydroxy-2-(methylpropylamino)morphinan TFA salt]",EC50,[1],0.548 µM
same,CC50 at 24 h,[2],29.6 µM
"CCN(C)c1cc2c(cc1O)[C@]13CCCC[C@@H]1[C@H](C2)NCC3 [Example 103, (+)-2-(Ethylmethylamino)-3-hydroxymorphinan TFA salt]",EC50,[1],1.59 µM
same,CC50 at 24 h,[2],> 100 µM
"CC(C)(C)c1cc2c(cc1O)[C@]13CCCC[C@@H]1[C@H](C2)NCC3 [Example 104, (+)-2-tert-Butyl-3-hydroxymorphinan TFA salt]",EC50,[1],1.37 µM
same,CC50 at 24 h,[2],10 µM
"CC1(c2cc3c(cc2O)[C@]24CCCC[C@@H]2[C@H](C3)NCC4)CCCCC1 [Example 105, (+)-3-Hydroxy-2-(1-methylcyclohexyl)morphinan TFA salt]",EC50,[1],0.594 µM
same,CC50 at 24 h,[2],2.24 µM
"Nc1ccccc1Nc1cc2c(cc1O)[C@]13CCCC[C@@H]1[C@H](C2)NCC3 [Example 106, (+)-2-(2-Aminophenylamino)-3-hydroxymorphinan TFA salt]",EC50,[1],0.0366 µM
same,CC50 at 24 h,[2],21.8 µM
"N#Cc1ccccc1Nc1cc2c(cc1O)[C@]13CCCC[C@@H]1[C@H](C2)NCC3 [Example 107, (+)-2-(2-Cyanophenylamino)-3-hydroxymorphinan TFA salt]",EC50,[1],0.557 µM
same,CC50 at 24 h,[2],5.8 µM
"COC(=O)c1ccccc1Nc1cc2c(cc1O)[C@]13CCCC[C@@H]1[C@H](C2)NCC3 [Example 108, (+)-3-Hydroxy-2-(2-(methoxycarbonyl)phenylamino)morphinan TFA salt]",EC50,[1],7.96 µM
same,CC50 at 24 h,[2],> 100 µM
"O=C(O)c1ccccc1Nc1cc2c(cc1O)[C@]13CCCC[C@@H]1[C@H](C2)NCC3 [Example 109, (+)-2-(2-Carboxyphenylamino)-3-hydroxymorphinan TFA salt]",EC50,[1],14.1 µM
same,CC50 at 24 h,[2],> 100 µM
"CS(=O)(=O)Nc1ccccc1Nc1cc2c(cc1O)[C@]13CCCC[C@@H]1[C@H](C2)NCC3 [Example 110, (+)-3-Hydroxy-2-(2-(methanesulfonamido)phenylamino)morphinan TFA salt]",EC50,[1],0.00453 µM
same,CC50 at 24 h,[2],7.55 µM
"CCS(=O)(=O)Nc1ccccc1Nc1cc2c(cc1O)[C@]13CCCC[C@@H]1[C@H](C2)NCC3 [Example 111, (+)-2-(2-(Ethanesulfonamido)phenylamino)-3-hydroxymorphinan TFA salt]",EC50,[1],0.475 µM
same,CC50 at 24 h,[2],36.5 µM
"CCCCS(=O)(=O)Nc1ccccc1Nc1cc2c(cc1O)[C@]13CCCC[C@@H]1[C@H](C2)NCC3 [Example 112, (+)-2-(2-(Butanesulfonamido)phenylamino)-3-hydroxymorphinan TFA salt]",EC50,[1],0.0556 µM
same,CC50 at 24 h,[2],20 µM
"O=S(=O)(Nc1ccccc1Nc1cc2c(cc1O)[C@]13CCCC[C@@H]1[C@H](C2)NCC3)c1ccccc1 [Example 113, (+)-2-(2-(Benzenesulfonamido)phenylamino)-3-hydroxymorphinan TFA salt]",EC50,[1],0.0272 µM
same,CC50 at 24 h,[2],3.01 µM
"CS(=O)(=O)Nc1ccc(Nc2cc3c(cc2O)[C@]24CCCC[C@@H]2[C@H](C3)NCC4)cc1 [Example 114, (+)-3-Hydroxy-2-(4-(methanesulfonamido)phenylamino)morphinan TFA salt]",EC50,[1],0.0329 µM
same,CC50 at 24 h,[2],11.4 µM
"CC(C)(C)C(=O)Nc1ccccc1Nc1cc2c(cc1O)[C@]13CCCC[C@@H]1[C@H](C2)NCC3 [Example 115, (+)-3-Hydroxy-2-(2-(pivalamido)phenylamino)morphinan TFA salt]",EC50,[1],2.5 µM
same,CC50 at 24 h,[2],53.6 µM
"CC(=O)Nc1ccc(Nc2cc3c(cc2O)[C@]24CCCC[C@@H]2[C@H](C3)NCC4)cc1 [Example 116, TFA salt]",EC50,[1],2.84 µM
same,CC50 at 24 h,[2],36.5 µM
"CCOC(=O)Nc1ccccc1Nc1cc2c(cc1O)[C@]13CCCC[C@@H]1[C@H](C2)NCC3 [Example 117, (+)-2-(2-(Ethoxycarbonylamino)phenylamino)-3-hydroxymorphinan TFA salt]",EC50,[1],1.08 µM
same,CC50 at 24 h,[2],36.5 µM
"CC(C)COC(=O)Nc1ccccc1Nc1cc2c(cc1O)[C@]13CCCC[C@@H]1[C@H](C2)NCC3 [Example 119, (+)-3-Hydroxy-2-(2-(isobutyloxycarbonylamino)phenylamino)morphinan TFA salt]",EC50,[1],0.211 µM
same,CC50 at 24 h,[2],8.7 µM
"CCNC(=O)Nc1ccccc1Nc1cc2c(cc1O)[C@]13CCCC[C@@H]1[C@H](C2)NCC3 [Example 120, (+)-2-(2-(Ethylureido)phenylamino)-3-hydroxymorphinan TFA salt]",EC50,[1],8.85 µM
same,CC50 at 24 h,[2],36.5 µM
"CCCCNC(=O)Nc1ccccc1Nc1cc2c(cc1O)[C@]13CCCC[C@@H]1[C@H](C2)NCC3 [Example 121, (+)-2-(2-(Butylureido)phenylamino)-3-hydroxymorphinan TFA salt]",EC50,[1],> 100 µM
same,CC50 at 24 h,[2],23.1 µM
"O=C(Nc1ccccc1)Nc1ccccc1Nc1cc2c(cc1O)[C@]13CCCC[C@@H]1[C@H](C2)NCC3 [Example 122, (+)-3-Hydroxy-2-(2-(phenylureido)phenylamino)morphinan TFA salt]",EC50,[1],3.7 µM
same,CC50 at 24 h,[2],33.8 µM
"CN(c1ccc(F)cc1)c1cc2c(cc1O)[C@]13CCCC[C@@H]1[C@H](C2)NCC3 [Example 124, (+)-2-(4-Fluorophenyl(methyl)amino)-3-hydroxymorphinan TFA salt]",EC50,[1],0.371 µM
same,CC50 at 24 h,[2],6.4 µM
"CN(c1cc2c(cc1O)[C@]13CCCC[C@@H]1[C@H](C2)NCC3)c1ccccc1NS(C)(=O)=O [Example 125, (+)-3-Hydroxy-2-(2-(methanesulfonamido)phenyl(methyl)amino)morphinan TFA salt]",EC50,[1],10.9 µM
same,CC50 at 24 h,[2],45.9 µM
"CN(C)c1ccccc1Nc1cc2c(cc1O)[C@]13CCCC[C@@H]1[C@H](C2)NCC3 [Example 126, (+)-2-(2-(Dimethylamino)phenylamino)-3-hydroxymorphinan TFA salt]",EC50,[1],0.0121 µM
same,CC50 at 24 h,[2],6.1 µM
"CNc1ccccc1Nc1cc2c(cc1O)[C@]13CCCC[C@@H]1[C@H](C2)NCC3 [Example 127, (+)-3-Hydroxy-2-(2-(methylamino)phenylamino)morphinan TFA salt]",EC50,[1],0.0621 µM
same,CC50 at 24 h,[2],1.3 µM
